Assay [1] has as its target T1, human muscarinic acetylcholine M3 receptor (Homo sapiens, UniProt P20309).
T1 construct: expressed in transfected cells; host or cells: CHO-K1 (Chinese Hamster Ovary) cell membranes
Kind of assay: Muscarinic 3 receptor binding assay ([3H]NMS competition, SPA), pIC50. The following applies: [3H]NMS 0.1 nM, CHO-K1 cell membranes expressing human M3 receptor. A digest of the protocol: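 SPA beads precoated with human M3-expressing CHO-K1 membranes were incubated 16 h at room temperature with serially diluted compound and 0.1 nM [3H]NMS (pH 7.4 HEPES buffer, MgCl2, BSA, 1% DMSO). Atropine (1 μM) defined non-specific binding; pIC50 is the 50% reduction in specific binding.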

Another assay addresses T2, Adrenergic β2 (Homo sapiens, UniProt P07550).
T2 construct: Adherent H292 cells are removed from tissue culture flasks by treatment with Accutase™ cell detachment solution; endogenous in cells; host or cells: H292 cells
The experiment in a line: Adrenergic β2 mediated cAMP production in H292 cells (AlphaScreen), concentration response. The following applies: for EC50: 60 min, 300 μM rolipram, read-out: β2 pEC50 (converted); for β2 Intrinsic Activity: fraction relative to the maximum activity determined for formoterol. The format is cell-based. A digest of the protocol:
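Intracellular cAMP in lysates read by AlphaScreen, calibrated with cAMP standards; curves fitted for pEC50, with intrinsic activity as a fraction of formoterol's maximum. Agonist exposure 60 min at room temperature after 10 min rolipram (300 μM final), 1% DMSO, HEPES-buffered HBSS pH 7.4.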
In general terms: Changes in cAMP serve as a functional read-out for many G protein-coupled receptors.

T1 sequence (P20309 whole entry): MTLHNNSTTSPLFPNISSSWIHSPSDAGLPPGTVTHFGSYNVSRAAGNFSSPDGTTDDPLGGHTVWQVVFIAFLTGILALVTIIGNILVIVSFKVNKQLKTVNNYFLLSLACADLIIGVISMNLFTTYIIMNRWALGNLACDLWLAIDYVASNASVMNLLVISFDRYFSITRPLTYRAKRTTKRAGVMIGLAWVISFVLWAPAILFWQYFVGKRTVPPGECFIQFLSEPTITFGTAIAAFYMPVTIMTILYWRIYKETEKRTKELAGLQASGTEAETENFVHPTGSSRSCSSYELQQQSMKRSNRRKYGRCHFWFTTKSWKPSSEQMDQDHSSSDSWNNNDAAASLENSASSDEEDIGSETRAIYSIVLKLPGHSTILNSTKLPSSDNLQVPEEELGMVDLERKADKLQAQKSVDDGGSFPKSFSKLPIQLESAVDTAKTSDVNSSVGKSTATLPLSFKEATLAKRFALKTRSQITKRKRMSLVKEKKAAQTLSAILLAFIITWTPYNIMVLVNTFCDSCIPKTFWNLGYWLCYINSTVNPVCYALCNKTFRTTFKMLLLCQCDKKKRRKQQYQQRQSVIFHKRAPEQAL
T2 sequence (P07550 whole entry): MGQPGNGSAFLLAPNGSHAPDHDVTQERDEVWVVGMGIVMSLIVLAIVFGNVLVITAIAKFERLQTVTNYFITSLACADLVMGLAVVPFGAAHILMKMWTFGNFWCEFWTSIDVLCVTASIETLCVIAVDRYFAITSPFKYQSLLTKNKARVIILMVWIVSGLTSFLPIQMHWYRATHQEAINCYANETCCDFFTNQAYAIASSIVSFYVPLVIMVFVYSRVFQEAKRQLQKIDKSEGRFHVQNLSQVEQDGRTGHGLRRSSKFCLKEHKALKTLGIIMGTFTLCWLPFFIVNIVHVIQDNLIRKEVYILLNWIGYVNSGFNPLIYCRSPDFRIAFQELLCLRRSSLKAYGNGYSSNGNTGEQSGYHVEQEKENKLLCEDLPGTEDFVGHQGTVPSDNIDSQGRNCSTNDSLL

With `CC(C)c1nc(C(=O)N2CCOC3(CCN(Cc4cccc(CCOCCC(=O)N(CCNCCc5ccc(O)c6c5OCC(=O)N6)Cc5ccccc5)c4F)CC3)C2)cs1` [Example 8, N-Benzyl-3-(2-fluoro-3-((4-(2-isopropylthiazole-4-carbonyl)-1-oxa-4,9-diazaspiro[5.5]undecan-9-yl)methyl)phenethoxy)-N-(2-(2-(5-hydroxy-3-oxo-3,4-dihydro-2H-benzo[b][1,4]oxazin-8-yl)ethylamino)ethyl)propanamide ditrifluoroacetate], the IC50 (usually the concentration that gives 50% inhibition) in assay [1] is 0.251 nM. Moreover, on Adrenergic β2, the EC50 was 39.8 nM and the “β2 Intrinsic Activity” value was 1.1.
With `O=C1COc2c(CCNCCN(C(=O)CCOCCc3cccc(CN4CCC5(CC4)CN(C(=O)c4csc(C6CCCC6)n4)CCO5)c3)C3CCCCC3)ccc(O)c2N1` [Example 88, N-Cyclohexyl-3-(3-((4-(2-cyclopentylthiazole-4-carbonyl)-1-oxa-4,9-diazaspiro[5.5]undecan-9-yl)methyl)phenethoxy)-N-(2-(2-(5-hydroxy-3-oxo-3,4-dihydro-2H-benzo[b][1,4]oxazin-8-yl)ethylamino)ethyl)propanamide], the IC50 in assay [1] is 0.2 nM. Further, on Adrenergic β2, the EC50 was 200 nM and the “β2 Intrinsic Activity” value came to 1.0.
`CCN(CCNCCc1ccc(O)c2[nH]c(=O)sc12)C(=O)CCOCCc1ccc(CCN2CCC3(CC2)CN(C(=O)c2csc(C(C)C)n2)CCO3)s1` [Example 52, N-Ethyl-N-(2-(2-(4-hydroxy-2-oxo-2,3-dihydrobenzo[d]thiazol-7-yl)ethylamino)ethyl)-3-(2-(5-(2-(4-(2-isopropylthiazole-4-carbonyl)-1-oxa-4,9-diazaspiro[5.5]undecan-9-yl)ethyl)thiophen-2-yl)ethoxy)propanamide ditrifluoroacetate] showed an IC50 in assay [1] of 1.58 nM. At Adrenergic β2, the EC50 was 12.6 nM and the “β2 Intrinsic Activity” value is reported as 0.9.
In assay [1], `O=C1COc2c(CCNCCN(C(=O)CCOCCc3cccc(CN4CCC5(CC4)CN(C(=O)c4csc(C6CCC6)n4)CCO5)c3)C3CCCCC3)ccc(O)c2N1` [Example 87, 3-(3-((4-(2-Cyclobutylthiazole-4-carbonyl)-1-oxa-4,9-diazaspiro[5.5]undecan-9-yl)methyl)phenethoxy)-N-cyclohexyl-N-(2-(2-(5-hydroxy-3-oxo-3,4-dihydro-2H-benzo[b][1,4]oxazin-8-yl)ethylamino)ethyl)propanamide] had an IC50 of 0.2 nM. For the same compound, at Adrenergic β2, the EC50 was 158 nM and the “β2 Intrinsic Activity” value was determined as 1.0.
In assay [1], `CCN(CCNCCc1ccc(O)c2[nH]c(=O)sc12)C(=O)CCOCCc1ccc(CCN2CCC3(CC2)CN(C(=O)c2csc(C(C)C)n2)CCO3)cc1` [Example 1, N-Ethyl-N-(2-(2-(4-hydroxy-2-oxo-2,3-dihydrobenzo[d]thiazol-7-yl)ethylamino)ethyl)-3-(4-(2-(4-(2-isopropylthiazole-4-carbonyl)-1-oxa-4,9-diazaspiro[5.5]undecan-9-yl)ethyl)phenethoxy)propanamide ditrifluoroacetate] showed an IC50 of 2 nM. In addition, on Adrenergic β2, the EC50 was 31.6 nM and the “β2 Intrinsic Activity” value came out at 0.7.
In turn, `CCc1nc(C(=O)N2CCOC3(CCN(CCc4ccc(CCOCCC(=O)N(CCCCCO)CCNCCc5ccc(O)c6[nH]c(=O)sc56)cc4)CC3)C2)cs1` [Example 75, 3-(4-(2-(4-(2-Ethylthiazole-4-carbonyl)-1-oxa-4,9-diazaspiro[5.5]undecan-9-yl)ethyl)phenethoxy)-N-(2-(2-(4-hydroxy-2-oxo-2,3-dihydrobenzo[d]thiazol-7-yl)ethylamino)ethyl)-N-(5-hydroxypentyl)propanamide diformate] showed a concentration for half-maximal inhibition (IC50) in assay [1] of 0.501 nM. Moreover, at Adrenergic β2, the EC50 is 50.1 nM and the “β2 Intrinsic Activity” value was 0.9.
The matching figures for `COc1cccc(CN(CCNCCc2ccc(O)c3c2OCC(=O)N3)C(=O)CCOCCc2cccc(CN3CCC4(CC3)CN(C(=O)c3csc(C(C)C)n3)CCO4)c2F)c1` [Example 23, 3-(2-Fluoro-3-((4-(2-Isopropylthiazole-4-carbonyl)-1-oxa-4,9-diazaspiro[5.5]undecan-9-yl)methyl)phenethoxy)-N-(2-(2-(5-hydroxy-3-oxo-3,4-dihydro-2H-benzo[b][1,4]oxazin-8-yl)ethylamino)ethyl)-N-(3-methoxybenzyl)propanamide ditrifluoroacetate]: 0.316 nM, 79.4 nM and 1.2.
Consider `CCN(CCNCCc1ccc(O)c2c1OCC(=O)N2)C(=O)CCOCCc1cccc(CN2CCC3(CC2)CN(C(=O)c2csc(C(C)C)c2)CCO3)c1F` [Example 74, N-Ethyl-3-(2-fluoro-3-((4-(5-isopropylthiophene-3-carbonyl)-1-oxa-4,9-diazaspiro[5.5]undecan-9-yl)methyl)phenethoxy)-N-(2-(2-(5-hydroxy-3-oxo-3,4-dihydro-2H-benzo[b][1,4]oxazin-8-yl)ethylamino)ethyl)propanamide ditrifluoroacetate], for which the IC50 in assay [1] was 0.2 nM. On Adrenergic β2, the EC50 was 100 nM and the “β2 Intrinsic Activity” value is 0.7.
For `CCN(CCNCCc1ccc(O)c2[nH]c(=O)sc12)C(=O)CCOCCc1cccc(CN2CCC3(CC2)CN(C(=O)c2csc(C(C)C)n2)CCO3)c1Cl` [Example 28, 3-(2-Chloro-3-((4-(2-isopropylthiazole-4-carbonyl)-1-oxa-4,9-diazaspiro[5.5]undecan-9-yl)methyl)phenethoxy)-N-ethyl-N-(2-(2-(4-hydroxy-2-Oxo-2,3-dihydrobenzo[d]thiazol-7-yl)ethylamino)ethyl)propanamide ditrifluoroacetate] the same measures were 2 nM, 12.6 nM and 0.8.
Take `CC(C)c1nc(C(=O)N2CCOC3(CCN(Cc4cccc(CCOCCC(=O)N(CCNCCc5ccc(O)c6c5OCC(=O)N6)[C@H](C)c5ccccc5)c4F)CC3)C2)cs1` [Example 14, (R)-3-(2-Fluoro-3-((4-(2-isopropylthiazole-4-carbonyl)-1-oxa-4,9-diazaspiro[5.5]undecan-9-yl)methyl)phenethoxy)-N-(2-(2-(5-hydroxy-3-oxo-3,4-dihydro-2H-benzo[b][1,4]oxazin-8-yl)ethylamino)ethyl)-N-(1-phenylethyl)propanamide ditrifluoroacetate]: the IC50 in assay [1] is 0.398 nM. For the same compound, at Adrenergic β2, the EC50 is 50.1 nM and the “β2 Intrinsic Activity” value came out at 1.0.
For the compound `CCc1nc(C(=O)N2CCOC3(CCN(Cc4cccc(CCOCCC(=O)N(CCNCCc5ccc(O)c6c5OCC(=O)N6)C5CCCCC5)c4)CC3)C2)cs1` [Example 95, N-Cyclohexyl-3-(3-((4-(2-ethylthiazole-4-carbonyl)-1-oxa-4,9-diazaspiro[5.5]undecan-9-yl)methyl)phenethoxy)-N-(2-(2-(5-hydroxy-3-oxo-3,4-dihydro-2H-benzo[b][1,4]oxazin-8-yl)ethylamino)ethyl)propanamide], the IC50 in assay [1] is 0.126 nM. Also, at Adrenergic β2, the EC50 is 100 nM and the “β2 Intrinsic Activity” value was 1.0.
In the case of `CC(C)c1nc(C(=O)N2CCOC3(CCN(Cc4cccc(OCCCOCCC(=O)N(CCNCCc5ccc(O)c6c5OCC(=O)N6)C5CCCCC5)c4)CC3)C2)cs1` [Example 60, N-Cyclohexyl-N-(2-(2-(5-hydroxy-3-oxo-3,4-dihydro-2H-benzo[b][1,4]oxazin-8-yl)ethylamino)ethyl)-3-(3-(3-((4-(2-isopropylthiazole-4-carbonyl)-1-oxa-4,9-diazaspiro[5.5]undecan-9-yl)methyl)phenoxy)propoxy)propanamide ditrifluoroacetate], in assay [1], the IC50 is 0.2 nM. For the same compound, at Adrenergic β2, the EC50 is 50.1 nM and the “β2 Intrinsic Activity” value amounted to 0.7.
Take `Cc1nc(C(=O)N2CCOC3(CCN(Cc4cccc(CCOCCC(=O)N(CCNCCc5ccc(O)c6[nH]c(=O)ccc56)C5CCCCC5)c4)CC3)C2)cs1` [Example 42, N-Cyclohexyl-N-(2-(2-(8-hydroxy-2-oxo-1,2-dihydroquinolin-5-yl)ethylamino)ethyl)-3-(3-((4-(2-methylthiazole-4-carbonyl)-1-oxa-4,9-diazaspiro[5.5]undecan-9-yl)methyl)phenethoxy)propanamide ditrifluoroacetate]: in assay [1], the IC50 was under 0.0316 nM. Also, at Adrenergic β2, the EC50 is 398 nM and the “β2 Intrinsic Activity” value was 1.0.
The compound `CCN(CCNCCc1ccc(O)c2[nH]c(=O)sc12)C(=O)CCOCCc1cccc(CN2CCC3(CC2)CN(C(=O)c2csc(C(C)C)n2)CCO3)c1OC` [Example 68, N-Ethyl-N-(2-(2-(4-hydroxy-2-oxo-2,3-dihydrobenzo[d]thiazol-7-yl)ethylamino)ethyl)-3-(3-((4-(2-isopropylthiazole-4-carbonyl)-1-oxa-4,9-diazaspiro[5.5]undecan-9-yl)methyl)-2-methoxyphenethoxy)propanamide ditrifluoroacetate] gave an IC50 in assay [1] of 10 nM. Further, on Adrenergic β2, the EC50 was 10 nM and the “β2 Intrinsic Activity” value is given as 0.6.
The compound `CC(C)c1nc(C(=O)N2CCOC3(CCN(Cc4cccc(CCOCCC(=O)N(CCNCCc5ccc(O)c6c5OCC(=O)N6)C5CCCCCC5)c4F)CC3)C2)cs1` [Example 7, N-Cycloheptyl-3-(2-fluoro-3-((4-(2-isopropylthiazole-4-carbonyl)-1-oxa-4,9-diazaspiro[5.5]undecan-9-yl)methyl)phenethoxy)-N-(2-(2-(5-hydroxy-3-oxo-3,4-dihydro-2H-benzo[b][1,4]oxazin-8-yl)ethylamino)ethyl)propanamide ditrifluoroacetate] had an IC50 in assay [1] of 0.631 nM. On Adrenergic β2, the EC50 was 39.8 nM and the “β2 Intrinsic Activity” value was 1.0.

These data come from patent US8476265B2, “Compounds-801” (AstraZeneca AB, priority 2010, dated 2013).
